Assay results reported in patent US12692238B2, “Substituted pyridazinone herbicides” (FMC CORPORATION, priority 2020, dated 2026).

How the values were obtained:
Type in all cases: in vivo
[1] = system: blackgrass (Alopecurus myosuroides); test: Test A preemergence, blackgrass; conditions: 0 to 100 scale, 10 days
Source text: (§1) Seeds of plant species selected from barnyardgrass (Echinochloa crus-galli), blackgrass (Alopecurus myosuroides), corn (Zea mays), foxtail, giant (giant foxtail, Setaria faberi), foxtail, green (green foxtail, Setaria viridis), goosegrass (Eleusine indica), kochia (Bassia scoparia), oat, wild (wild oat, Avena fatua), palmer amaranth (pigweed, palmer, Amaranthus palmeri), redroot pigweed (Amaranthus retroflexus), ragweed (common ragweed, Ambrosia artemisiifolia), ryegrass, Italian (Italian ryegrass, Lolium multiflorum), and soybean (Glycine max) were planted into a blend of loam soil and sand and treated preemergence with a directed soil spray using test chemicals formulated in a non-phytotoxic solvent mixture which included a surfactant.
(§2) At the same time, plants selected from these crop and weed species and also wheat (Triticum aestivum), galium (catchweed bedstraw, Galium aparine) and horseweed (Erigeron canadensis) were planted in pots containing the same blend of loam soil and sand and treated with postemergence applications of test chemicals formulated in the same manner. Plants ranged in height from 2 to 10 cm and were in the one- to two-leaf stage for the postemergence treatment. Treated plants and untreated controls were maintained in a greenhouse for 10 days, after which time all treated plants were compared to untreated controls and visually evaluated for injury. Plant response ratings, summarized in Table A, are based on a 0 to 100 scale where 0 is no effect and 100 is complete control. A dash (-) response means no test result.

corn (Zea mays) [2] = test: Test A preemergence, corn; conditions: 0 to 100 scale, 10 days
Source text: as §1, §2

[3] = system: foxtail, giant (giant foxtail, Setaria faberi); test: Test A preemergence, foxtail, giant; conditions: 0 to 100 scale, 10 days
Summary of the method: (§3)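 Visual injury ratings on a 0 to 100 scale (0 no effect, 100 complete control) were made 10 days after treatment, relative to untreated controls. Test chemicals in a surfactant-containing non-phytotoxic solvent were applied to soil at planting or to one- to two-leaf plants 2 to 10 cm tall.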

[4] = system: goosegrass (Eleusine indica); test: Test A preemergence, goosegrass; conditions: 0 to 100 scale, 10 days
Source text: as §1, §2

kochia (Bassia scoparia) [5] = test: Test A preemergence, kochia; conditions: 0 to 100 scale, 10 days
Summary of the method: as §3

[6] = system: oat, wild (wild oat, Avena fatua); test: Test A preemergence, oat, wild; conditions: 0 to 100 scale, 10 days
Source text: as §1, §2

[7] = system: palmer amaranth (pigweed, palmer, Amaranthus palmeri); test: Test A preemergence, palmer amaranth; conditions: 0 to 100 scale, 10 days
Source text: as §1, §2

[8] = system: ragweed (common ragweed, Ambrosia artemisiifolia); test: Test A preemergence, ragweed; conditions: 0 to 100 scale, 10 days
Summary of the method: as §3

[9] = system: ryegrass, Italian (Italian ryegrass, Lolium multiflorum); test: Test A preemergence, ryegrass, Italian; conditions: 0 to 100 scale, 10 days
Summary of the method: as §3

soybean (Glycine max) [10] = test: Test A preemergence, soybean; conditions: 0 to 100 scale, 10 days
Source text: as §1, §2

[11] = system: blackgrass (Alopecurus myosuroides); test: Test A postemergence, blackgrass; conditions: 10 days
Summary of the method: as §3

corn (Zea mays) [12] = test: Test A postemergence, corn; conditions: 10 days
Summary of the method: as §3

[13] = system: foxtail, giant (giant foxtail, Setaria faberi); test: Test A postemergence, foxtail, giant; conditions: 10 days
Summary of the method: as §3

[14] = system: goosegrass (Eleusine indica); test: Test A postemergence, goosegrass; conditions: 10 days
Source text: as §1, §2

kochia (Bassia scoparia) [15] = test: Test A postemergence, kochia; conditions: 10 days
Summary of the method: as §3

[16] = system: oat, wild (wild oat, Avena fatua); test: Test A postemergence, oat, wild; conditions: 10 days
Source text: as §1, §2

[17] = system: palmer amaranth (pigweed, palmer, Amaranthus palmeri); test: Test A postemergence, palmer amaranth; conditions: 10 days
Source text: as §1, §2

[18] = system: ragweed (common ragweed, Ambrosia artemisiifolia); test: Test A postemergence, ragweed; conditions: 10 days
Summary of the method: as §3

[19] = system: ryegrass, Italian (Italian ryegrass, Lolium multiflorum); test: Test A postemergence, ryegrass, Italian; conditions: 10 days
Summary of the method: as §3

soybean (Glycine max) [20] = test: Test A postemergence, soybean; conditions: 10 days
Source text: as §1, §2

[21] = system: wheat (Triticum aestivum); test: Test A postemergence, wheat; conditions: 10 days
Summary of the method: as §3

[22] = system: galium (catchweed bedstraw, Galium aparine); test: Test A postemergence, galium; conditions: 10 days
Summary of the method: as §3

[23] = system: horseweed (Erigeron canadensis); test: Test A postemergence, horseweed; conditions: 10 days
Source text: as §1, §2

[24] = system: barnyardgrass (Echinochloa crus-galli); test: Test B flooded paddy test, barnyardgrass; conditions: 250 g ai/ha, Flood; visually evaluated after 10 to 14 days
Summary of the method: (§4)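 Greenhouse paddy assay in which test compounds were dosed into floodwater standing 3 cm above the soil. Plants were at the 2-leaf stage, the water level was kept constant, and effects were rated visually 10–14 days later on a 0–100 scale relative to controls.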

[25] = system: ducksalad (Heteranthera limosa); test: Test B flooded paddy test, ducksalad; conditions: 250 g ai/ha, Flood; visually evaluated after 10 to 14 days
Summary of the method: as §4

rice (Oryza sativa) = test: Test B flooded paddy test, rice; conditions: 250 g ai/ha, Flood; visually evaluated after 10 to 14 days
Summary of the method: as §4

[26] = system: sedge, umbrella (small-flower umbrella sedge, Cyperus difformis); test: Test B flooded paddy test, sedge, umbrella; conditions: 250 g ai/ha, Flood; visually evaluated after 10 to 14 days
Summary of the method: as §4

[27] = system: wheat (Triticum aestivum); test: Test A preemergence, wheat; conditions: 125 g ai/ha, 0 to 100 scale, 10 days
[28] = 31 g ai/ha, postemergence, 0 to 100 scale (0 no effect, 100 complete control)
[29] = Postemergence, 125 g ai/ha, 0 to 100 scale

In the case of Cc1ccc2cc3ccc(F)cc3c(-c3c(OCOC(=O)N(C)C)c(C)nn(C)c3=O)c2c1 [Compound 16], the “Plant response rating, Blackgrass” value ([1]; 31 g ai/ha) is reported as 0, the “Plant response rating, Blackgrass” value ([1]; 125 g ai/ha) is reported as 0 and the “Plant response rating, Corn” value (corn (Zea mays) [2]; 31 g ai/ha) is reported as 0. The “Plant response rating, Corn” value (corn (Zea mays) [2]; 125 g ai/ha) was 0, the “Plant response rating, Foxtail, Giant” value ([3]; 31 g ai/ha) was 0 and the “Plant response rating, Foxtail, Giant” value ([3]; 125 g ai/ha) was 0. The “Plant response rating, Goosegrass” value ([4]; 31 g ai/ha) was 0, the “Plant response rating, Goosegrass” value ([4]; 125 g ai/ha) was 0 and the “Plant response rating, Kochia” value (kochia (Bassia scoparia) [5]; 31 g ai/ha) was 0. The “Plant response rating, Kochia” value (kochia (Bassia scoparia) [5]; 125 g ai/ha) was 0, the “Plant response rating, Oat, Wild” value ([6]; 31 g ai/ha) was 0 and the “Plant response rating, Oat, Wild” value ([6]; 125 g ai/ha) was 0. The “Plant response rating, Pigweed, Palmer” value ([7]; 31 g ai/ha) was 10, the “Plant response rating, Pigweed, Palmer” value ([7]; 125 g ai/ha) was 0 and the “Plant response rating, Ragweed” value ([8]; 31 g ai/ha) was 0. For the same compound, the “Plant response rating, Ragweed” value ([8]; 125 g ai/ha) was 0, the “Plant response rating, Ryegrass, Italian” value ([9]; 31 g ai/ha) was 0 and the “Plant response rating, Ryegrass, Italian” value ([9]; 125 g ai/ha) was 0. For the same compound, the “Plant response rating, Soybean” value (soybean (Glycine max) [10]; 31 g ai/ha) was 0, the “Plant response rating, Soybean” value (soybean (Glycine max) [10]; 125 g ai/ha) was 0 and the “Plant response rating, Blackgrass” value [11, 28] was 0. For the same compound, the “Plant response rating, Blackgrass” value [11, 29] was 0, the “Plant response rating, Corn” value (corn (Zea mays) [12]; [28]) was 0 and the “Plant response rating, Corn” value (corn (Zea mays) [12]; [29]) was 0. For the same compound, the “Plant response rating, Foxtail, Giant” value [13, 28] was 0, the “Plant response rating, Foxtail, Giant” value [13, 29] was 20 and the “Plant response rating, Goosegrass” value [14, 28] was 0. For the same compound, the “Plant response rating, Goosegrass” value [14, 29] was 0, the “Plant response rating, Kochia” value (kochia (Bassia scoparia) [15]; [28]) was 60 and the “Plant response rating, Kochia” value (kochia (Bassia scoparia) [15]; [29]) was 80. The “Plant response rating, Oat, Wild” value [16, 28] was 0, the “Plant response rating, Oat, Wild” value [16, 29] was 0 and the “Plant response rating, Pigweed, Palmer” value [17, 28] was 100. For the same compound, the “Plant response rating, Pigweed, Palmer” value [17, 29] was 60, the “Plant response rating, Ragweed” value [18, 28] was 10 and the “Plant response rating, Ragweed” value [18, 29] was 30. For the same compound, the “Plant response rating, Ryegrass, Italian” value [19, 28] was 0, the “Plant response rating, Ryegrass, Italian” value [19, 29] was 0 and the “Plant response rating, Soybean” value (soybean (Glycine max) [20]; [28]) was 10. The “Plant response rating, Soybean” value (soybean (Glycine max) [20]; [29]) was 30, the “Plant response rating, Wheat” value [21, 28] was 0 and the “Plant response rating, Wheat” value [21, 29] was 0. The “Plant response rating, Galium” value [22, 28] was 0, the “Plant response rating, Galium” value [22, 29] was 50 and the “Plant response rating, Horseweed” value [23, 28] was 10. For the same compound, the “Plant response rating, Horseweed” value [23, 29] was 10, the “Plant response rating, Barnyardgrass (0 to 100 scale where 0 is no effect and 100 is complete control)” value [24] was 0 and the “Plant response rating, Ducksalad (0 to 100 scale where 0 is no effect and 100 is complete control)” value [25] was 0. The “Plant response rating, Rice (0 to 100 scale where 0 is no effect and 100 is complete control)” value (rice (Oryza sativa)) was 0, the “Plant response rating, Sedge, Umbrella (0 to 100 scale where 0 is no effect and 100 is complete control)” value [26] was 0 and the “Plant response rating, Wheat” value [27] was 0.
For Cc1ccc2cc3ccc(F)cc3c(-c3c(OCOC(=O)OC(C)C)c(C)nn(C)c3=O)c2c1 [Compound 17], the “Plant response rating, Blackgrass” value ([1]; 31 g ai/ha) was 0, the “Plant response rating, Blackgrass” value ([1]; 125 g ai/ha) was 20 and the “Plant response rating, Corn” value (corn (Zea mays) [2]; 31 g ai/ha) was 0. For the same compound, the “Plant response rating, Corn” value (corn (Zea mays) [2]; 125 g ai/ha) was 30, the “Plant response rating, Foxtail, Giant” value ([3]; 31 g ai/ha) was 100 and the “Plant response rating, Foxtail, Giant” value ([3]; 125 g ai/ha) was 100. For the same compound, the “Plant response rating, Goosegrass” value ([4]; 31 g ai/ha) was 50, the “Plant response rating, Goosegrass” value ([4]; 125 g ai/ha) was 60 and the “Plant response rating, Kochia” value (kochia (Bassia scoparia) [5]; 31 g ai/ha) was 90. For the same compound, the “Plant response rating, Kochia” value (kochia (Bassia scoparia) [5]; 125 g ai/ha) was 90, the “Plant response rating, Oat, Wild” value ([6]; 31 g ai/ha) was 0 and the “Plant response rating, Oat, Wild” value ([6]; 125 g ai/ha) was 0. The “Plant response rating, Pigweed, Palmer” value ([7]; 31 g ai/ha) was 100, the “Plant response rating, Pigweed, Palmer” value ([7]; 125 g ai/ha) was 100 and the “Plant response rating, Ragweed” value ([8]; 31 g ai/ha) was 100. The “Plant response rating, Ragweed” value ([8]; 125 g ai/ha) was 100, the “Plant response rating, Ryegrass, Italian” value ([9]; 31 g ai/ha) was 30 and the “Plant response rating, Ryegrass, Italian” value ([9]; 125 g ai/ha) was 80. For the same compound, the “Plant response rating, Soybean” value (soybean (Glycine max) [10]; 31 g ai/ha) was 0, the “Plant response rating, Soybean” value (soybean (Glycine max) [10]; 125 g ai/ha) was 0 and the “Plant response rating, Blackgrass” value [11, 28] was 0. The “Plant response rating, Blackgrass” value [11, 29] was 10, the “Plant response rating, Corn” value (corn (Zea mays) [12]; [28]) was 0 and the “Plant response rating, Corn” value (corn (Zea mays) [12]; [29]) was 30. For the same compound, the “Plant response rating, Foxtail, Giant” value [13, 28] was 100, the “Plant response rating, Foxtail, Giant” value [13, 29] was 100 and the “Plant response rating, Goosegrass” value [14, 28] was 30. The “Plant response rating, Goosegrass” value [14, 29] was 50, the “Plant response rating, Kochia” value (kochia (Bassia scoparia) [15]; [28]) was 100 and the “Plant response rating, Kochia” value (kochia (Bassia scoparia) [15]; [29]) was 100. The “Plant response rating, Oat, Wild” value [16, 28] was 10, the “Plant response rating, Oat, Wild” value [16, 29] was 30 and the “Plant response rating, Pigweed, Palmer” value [17, 28] was 90. For the same compound, the “Plant response rating, Pigweed, Palmer” value [17, 29] was 100, the “Plant response rating, Ragweed” value [18, 28] was 100 and the “Plant response rating, Ragweed” value [18, 29] was 100. The “Plant response rating, Ryegrass, Italian” value [19, 28] was 70, the “Plant response rating, Ryegrass, Italian” value [19, 29] was 100 and the “Plant response rating, Soybean” value (soybean (Glycine max) [20]; [28]) was 60. The “Plant response rating, Soybean” value (soybean (Glycine max) [20]; [29]) was 80, the “Plant response rating, Wheat” value [21, 28] was 0 and the “Plant response rating, Wheat” value [21, 29] was 0. The “Plant response rating, Galium” value [22, 28] was 100, the “Plant response rating, Galium” value [22, 29] was 100 and the “Plant response rating, Horseweed” value [23, 28] was 100. The “Plant response rating, Horseweed” value [23, 29] was 100, the “Plant response rating, Barnyardgrass (0 to 100 scale where 0 is no effect and 100 is complete control)” value [24] was 70 and the “Plant response rating, Ducksalad (0 to 100 scale where 0 is no effect and 100 is complete control)” value [25] was 85. The “Plant response rating, Rice (0 to 100 scale where 0 is no effect and 100 is complete control)” value (rice (Oryza sativa)) was 45, the “Plant response rating, Sedge, Umbrella (0 to 100 scale where 0 is no effect and 100 is complete control)” value [26] was 85 and the “Plant response rating, Wheat” value [27] was 0.
